The results in this text go back to patent US6353002B2, “Therapeutic agents” (Knoll Aktiengesellschaft, priority 1997, dated 2002).

Counter-ions that a name gives are not always drawn.

In one data set the target is T1, 5-HT1A receptors (Rattus norvegicus, UniProt P19327).
T1 construct: Hippocampal tissue from the brains of male Charles River CD rats; from tissue; host or cells: rat hippocampus membrane homogenate
T1 sequence (P19327 1-422): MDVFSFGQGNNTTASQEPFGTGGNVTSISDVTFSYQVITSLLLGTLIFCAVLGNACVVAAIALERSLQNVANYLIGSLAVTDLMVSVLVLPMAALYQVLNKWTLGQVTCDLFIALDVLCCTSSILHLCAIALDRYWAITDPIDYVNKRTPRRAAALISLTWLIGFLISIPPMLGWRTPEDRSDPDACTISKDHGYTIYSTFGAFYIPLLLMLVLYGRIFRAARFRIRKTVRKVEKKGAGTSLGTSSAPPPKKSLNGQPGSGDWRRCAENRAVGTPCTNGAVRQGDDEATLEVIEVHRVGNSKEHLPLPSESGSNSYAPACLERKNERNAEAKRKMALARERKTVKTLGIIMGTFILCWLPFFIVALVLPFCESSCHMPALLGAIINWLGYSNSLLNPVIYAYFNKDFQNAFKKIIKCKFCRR
As to the kind of experiment: Inhibition of [3H]8-OH-DPAT binding to 5-HT1A receptors in rat hippocampal tissue. The settings on record: ligand [3H]8-OH-DPAT 2 nM, 25° C., 30 minutes. The method, then:
Hippocampal tissue from the brains of male Charles River CD rats weighing between 150-250 g were homogenised in ice-cold 50 mM Tris-HCl buffer (pH 7.7) when measured at 25° C., 1:40 w/v) and centrifuged at 30,000 g at 4° C. for 10 minutes. The pellet was rehomogenised in the same buffer, incubated at 37° C. for 10 minutes and centrifuged at 30,000 g at 4° C. for 10 minutes. The final pellet was resuspended in 50 mM Tris-HCl buffer (pH 7.7) containing 4 mM CaCl2, 0.1% L-ascorbic acid and 10 μM pargyline hydrochloride (equivalent to 6.25 mg wet weight of tissue/ml) and used immediately in the binding assay. Aliquots (400 μl; equivalent to 2.5 mg wet weight of tissue/tube) of this suspension were added to tubes containing the ligand (50 μl; 2 nM) and distilled water (50 μl; total binding) or 5-HT (50 μl; 10 μM; non-specific binding) or test compound (50 μl; at a single concentration of 10^−8 M or at 10 concentrations ranging from 10^−11−10^−3 M). The ligand was [^3H]8-hydroxy-2-(dipropylamino)tetralin ([^3H]8-OH-DPAT) and the mixture was incubated at 25° C. for 30 minutes before the incubation was terminated by rapid filtration.
The filters were washed with ice-cold Tris-HCl buffer and dried. The filters were punched out into vials, scintillation fluid added and radioactivity determined by liquid scintillation counting. The percentage displacement of specific binding of the tritiated ligand was calculated for the single concentration (10^−6 M) of test compound. Displacement curves were then produced for those compounds which displaced ≧50% of specific binding of the tritiated ligand at 10^−6 M using a range of concentrations of the compound. The concentration which gave 50% inhibition of specific binding (IC50) was obtained from the curve. The inhibition coefficient Ki was then calculated using the formula [formula]
in which [ligand] is the concentration of the tritiated ligand used and KD is the equilibrium dissociation constant for the ligand.
As for `COc1ccccc1N1CCC(CNC[C@H]2COc3ccc4occc4c3O2)CC1` [Example 6, (S)-N-(2,3-dihydrofuro[3,2-f]-1,4-benzodioxin-2-ylmethyl)-1-[1-(2-methoxyphenyl)piperid-4-yl]methylamine monofumarate monohydrate], the Ki was determined as 1.7 nM. For `COc1ccccc1N1CCC(CNC[C@H]2COc3ccc4scc(Cl)c4c3O2)CC1` [Example 1, (S)-N-(9-chloro-2,3-dihydrothieno[3,2-f]-1,4-benzodioxin-2-ylmethyl)-1-[1-(2-methoxyphenyl)piperid-4-yl]methylamine 0.5 fumarate], the affinity, expressed as Ki, was 36 nM.

The molecule `COc1ccccc1N1CCC(CNC[C@H]2COc3ccc4sccc4c3O2)CC1.O=C(O)/C=C/C(=O)O` [Example 2, (S)-N-(2,3-dihydrothieno[3,2-f]-1,4-benzodioxin-2-ylmethyl)-1-[1-(2-methoxyphenyl)piperid-4-yl]methylamine monofumarate] showed a Ki of 9.7 nM.

Take `COc1ccccc1N1CCC(CNC[C@H]2COc3ccc4[nH]ncc4c3O2)CC1` [Example 5, (S)-N-(2,3-dihydro-7H-1,4-dioxino[2,3-e]indazol-2-ylmethyl)-1-[1-(2-methoxyphenyl)piperid-4-yl]methylamine]: the Ki was 1.2 nM. Still for that read-out and setting: then `Oc1ccccc1N1CCC(CNC[C@H]2COc3ccc4occc4c3O2)CC1` [Example 7, (S)-2-{4-[(2,3-Dihydrofuro[3,2-f]-1,4-benzodioxin-2-ylmethyl)-aminomethyl]piperidino}phenol monofumarate 1.1 hydrate, 0.25 ethanol solvate], with 3.6 nM. The molecule `COc1ccccc1N1CCC(CNC[C@H]2COc3ccc4c(c3O2)OCO4)CC1` [Example 8, (S)-N-(7,8-methylenedioxy-2,3-dihydro-1,4-benzodioxin-2-ylmethyl)-1-[1-(2-methoxyphenyl)piperid-4-yl]methyl-amine monocitrate] came in with a Ki of 1.1 nM.

The data set is the same for the next values; noted with them: single concentration 10^−6 M of test compound, ligand [3H]8-OH-DPAT.
As for `CCOC(=O)c1cc2c3c(ccc2[nH]1)OC[C@H](CNCC1CCN(c2ccccc2OC)CC1)O3` [Example 3, ethyl (S)-2,3-dihydro-2-(N-{[1-(2-methoxyphenyl)piperid-4-yl]methyl}aminomethyl)-7H-1,4-dioxino[2,3-e]indole-8-carboxylate 0.05 dichloromethane solvate], the “% displacement at 10^−6 M, 5-HT1A” value is reported as 99%. Take `COc1ccccc1N1CCC(CNC[C@H]2COc3ccc4[nH]ccc4c3O2)CC1` [Example 4, (S)-N-(2,3-dihydro-7H-1,4-dioxino[2,3-e]indol-2-ylmethyl)-1-[1-(2-methoxyphenyl)piperid-4-yl]methylamine 0.1 hydrate]: the “% displacement at 10^−6 M, 5-HT1A” value came out at 99%.

Tested on in another data set: not given
Assay: not given
Settings: not given
In turn, `COc1ccccc1N1CCC(CNC[C@H]2COc3ccc4occc4c3O2)CC1.O.O=C(O)/C=C/C(=O)O` (hydrate or solvate) [Example 6, (S)-N-(2,3-dihydrofuro[3,2-f]-1,4-benzodioxin-2-ylmethyl)-1-[1-(2-methoxyphenyl)piperid-4-yl]methylamine monofumarate monohydrate] returned a melting point of 95 to 96 °C. In the case of `COc1ccccc1N1CCC(CNC[C@H]2COc3ccc4sccc4c3O2)CC1.O=C(O)/C=C/C(=O)O` [Example 2, (S)-N-(2,3-dihydrothieno[3,2-f]-1,4-benzodioxin-2-ylmethyl)-1-[1-(2-methoxyphenyl)piperid-4-yl]methylamine monofumarate], the melting point was in the range of 180 to 182 °C. Molecule `COc1ccccc1N1CCC(CNC[C@H]2COc3ccc4scc(Cl)c4c3O2)CC1` (as salt: fumarate) [Example 1, (S)-N-(9-chloro-2,3-dihydrothieno[3,2-f]-1,4-benzodioxin-2-ylmethyl)-1-[1-(2-methoxyphenyl)piperid-4-yl]methylamine 0.5 fumarate] showed a melting point of 171 to 172 °C. Take `COc1ccccc1N1CCC(CNC[C@H]2COc3ccc4[nH]ccc4c3O2)CC1` (hydrate or solvate) [Example 4, (S)-N-(2,3-dihydro-7H-1,4-dioxino[2,3-e]indol-2-ylmethyl)-1-[1-(2-methoxyphenyl)piperid-4-yl]methylamine 0.1 hydrate]: the melting point was 162 to 163 °C. Consider `Oc1ccccc1N1CCC(CNC[C@H]2COc3ccc4occc4c3O2)CC1` (as salt: fumarate) (hydrate or solvate) [Example 7, (S)-2-{4-[(2,3-Dihydrofuro[3,2-f]-1,4-benzodioxin-2-ylmethyl)-aminomethyl]piperidino}phenol monofumarate 1.1 hydrate, 0.25 ethanol solvate], for which the melting point fell in the range of 88 to 89 °C.

The target in another data set is D2-like dopamine receptors (Rattus norvegicus, UniProt P61169). The data set is described as follows: Inhibition of tritiated (S)-sulpiride binding to D2-like dopamine receptors in rat striatal tissue. The settings on record: ligand tritiated (S)-sulpiride 1 nM, 4° C., 40 minutes. The method, then: Striatal tissue from the brains of male Charles River CD rats weighing between 140-250 g were homogenised in ice-cold 50 mM Tris-HCl buffer (pH 7.7 when measured at 25° C.) and centrifuged at 40,000 g for 10 minutes. The pellet was resuspended in Tris salts buffer (50 mM Tris-HCl buffer containing 120 mM NaCl, 5 mM KCl, 2 mM CaCl2 and 1 mM MgCl2 with the addition of 6 mM ascorbic acid; pH 7.7 when measured at 25° C.), and again centrifuged at 40,000 g for 10 minutes. The final pellet was stored at −80° C. Before each test the pellet was resuspended in Tris salts buffer (equivalent to 2 mg wet weight of tissue/ml). […]
D2-like dopamine receptors, sequence (P61169 whole entry): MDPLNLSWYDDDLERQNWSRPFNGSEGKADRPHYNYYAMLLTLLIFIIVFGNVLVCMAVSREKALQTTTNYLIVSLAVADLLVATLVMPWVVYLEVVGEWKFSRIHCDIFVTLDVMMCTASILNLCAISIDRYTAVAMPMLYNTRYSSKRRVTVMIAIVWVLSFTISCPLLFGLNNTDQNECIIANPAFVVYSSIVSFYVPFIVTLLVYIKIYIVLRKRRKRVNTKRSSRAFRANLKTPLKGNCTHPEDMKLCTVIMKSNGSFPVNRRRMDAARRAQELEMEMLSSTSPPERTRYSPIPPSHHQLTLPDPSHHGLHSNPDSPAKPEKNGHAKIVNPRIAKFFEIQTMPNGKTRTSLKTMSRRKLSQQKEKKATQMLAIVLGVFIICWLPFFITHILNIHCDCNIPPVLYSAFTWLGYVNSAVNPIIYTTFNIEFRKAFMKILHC
The filters were washed with ice-cold Tris-HCl buffer and dried. The filters were punched out in to vials, scintillation fluid added and were left for about 20 hours before being counted by scintillation spectrophotometry. The percentage displacement of specific binding of the tritiated ligand was calculated for the single concentration (10^−6M) of test compound. […] The inhibition coefficient Ki then calculated using the formula [formula] […]
`CCOC(=O)c1cc2c3c(ccc2[nH]1)OC[C@H](CNCC1CCN(c2ccccc2OC)CC1)O3` [Example 3, ethyl (S)-2,3-dihydro-2-(N-{[1-(2-methoxyphenyl)piperid-4-yl]methyl}aminomethyl)-7H-1,4-dioxino[2,3-e]indole-8-carboxylate 0.05 dichloromethane solvate] showed a Ki of 106 nM.
